From US20150080438A1, “6,7-Dihydro-5H-benzo[7]annulene derivatives, processes for their preparation, pharmaceutical products comprising them and their use for preparing medicaments” (Bayer Intellectual Property GmbH, priority 2011, published 2015)

Biological target: T1, oestrogen receptor (ER) (Homo sapiens, UniProt P03372)
T1 construct: These MVLN cells express, along with the functional oestrogen receptor (ER), a reporter construct; endogenous in cells; host or cells: MVLN cells (MCF7 derivative with ER-responsive luciferase reporter)
T1 sequence (P03372 1-595): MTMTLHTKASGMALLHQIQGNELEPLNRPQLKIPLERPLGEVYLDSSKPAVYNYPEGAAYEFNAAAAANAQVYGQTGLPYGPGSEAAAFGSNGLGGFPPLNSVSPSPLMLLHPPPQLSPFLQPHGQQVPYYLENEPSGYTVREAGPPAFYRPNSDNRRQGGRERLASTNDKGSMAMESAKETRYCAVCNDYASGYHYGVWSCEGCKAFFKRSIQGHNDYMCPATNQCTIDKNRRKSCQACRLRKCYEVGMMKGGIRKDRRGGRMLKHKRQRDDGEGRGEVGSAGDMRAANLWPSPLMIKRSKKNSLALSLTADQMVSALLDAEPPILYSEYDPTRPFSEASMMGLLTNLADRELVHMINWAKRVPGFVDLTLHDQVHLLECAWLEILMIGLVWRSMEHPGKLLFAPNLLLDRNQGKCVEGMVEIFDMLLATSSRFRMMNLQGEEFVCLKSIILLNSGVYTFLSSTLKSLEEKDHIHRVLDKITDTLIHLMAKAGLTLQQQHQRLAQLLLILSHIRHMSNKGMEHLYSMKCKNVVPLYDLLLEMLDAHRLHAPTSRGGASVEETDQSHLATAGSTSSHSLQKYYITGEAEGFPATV
Assay: Anti-oestrogenic action in MVLN cells (inhibition of estradiol-induced luciferase, transactivation antagonism)
Assay type: cell-based
Conditions: inhibition of estradiol-induced luciferase activity, read-out: Anti-oestrogenic action in vitro: MVLN transactivation antagonism IC50
In short: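 MCF7-derived MVLN cells carrying an ER-driven luciferase reporter; test compounds applied with estradiol, and anti-oestrogenic action scored as inhibition of the estradiol-induced luciferase signal.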

Compound `[O-][S+](CCCN(CCO)CCCCCCC1=C(c2ccccc2)CCCc2cc(O)ccc21)CCCC(F)(F)C(F)(F)F` (racemic) [Example 70, 9-{6-[(2-Hydroxyethyl){3-[(RS)-(4,4,5,5,5-pentafluoropentyl)sulphinyl]propyl}amino]hexyl}-8-phenyl-6,7-dihydro-5H-benzo[7]annulen-3-ol] has an IC50 of 2 nM.
For `CN(CCCCCCC1=C(c2ccccc2)CCCc2cc(O)ccc21)CCCS(=O)(=O)CCCC(F)(F)C(F)(F)F` [Example 63, 9-[6-(Methyl{3-[(4,4,5,5,5-pentafluoropentyl)sulphonyl]propyl}amino)hexyl]-8-phenyl-6,7-dihydro-5H-benzo[7]annulen-3-ol], the IC50 was 9 nM.
With `CC(C)(O)CN(CCCCCCC1=C(c2cccc(O)c2)CCCc2cc(O)ccc21)CCC[S+]([O-])CCCC(F)(F)C(F)(F)F` (racemic) [Example 89, 9-{6-[(2-Hydroxy-2-methylpropyl){3-[(RS)-(4,4,5,5,5-pentafluoropentyl)sulphinyl]propyl}amino]hexyl}-8-(3-hydroxyphenyl)-6,7-dihydro-5H-benzo[7]annulen-3-ol] the IC50 was 2 nM.
Work on `CN(CCCCCCC1=C(c2cccc(O)c2)CCCc2cc(O)ccc21)CCCCS(=O)(=O)CCCC(F)(F)F` [Example 52, 8-(3-Hydroxyphenyl)-9-[6-(methyl{4-[(4,4,4-trifluorobutyl)sulphonyl]butyl}amino)hexyl]-6,7-dihydro-5H-benzo[7]annulen-3-ol] yielded an IC50 of 1 nM.
`CN(CCCCCCC1=C(c2ccc(F)c(O)c2)CCCc2cc(O)ccc21)CCCCCCS(=O)(=O)CCCC(F)(F)C(F)(F)F` [Example 35, 8-(4-Fluoro-3-hydroxyphenyl)-9-[6-(methyl{6-[(4,4,5,5,5-pentafluoropentyl)sulphonyl]hexyl}amino)hexyl]-6,7-dihydro-5H-benzo[7]annulen-3-ol] showed an IC50 of 11 nM.
For `O=S(=O)(CCCN(CCO)CCCCCCC1=C(c2ccccc2)CCCc2cc(O)ccc21)CCC(F)(F)F` [Example 79, 9-{6-[(2-Hydroxyethyl){3-[(3,3,3-trifluoropropyl)sulphonyl]propyl}amino]hexyl}-8-phenyl-6,7-dihydro-5H-benzo[7]annulen-3-ol], the IC50 was 9 nM.
`CN(CCCCCCC1=C(c2cccc(O)c2)CCCc2cc(O)ccc21)CCC[S+]([O-])CCCC(F)(F)C(F)(F)F` (racemic) [Example 12, 8-(3-Hydroxyphenyl)-9-[6-(methyl{3-[(RS)-(4,4,5,5,5-pentafluoropentyl)sulphinyl]propyl}amino)hexyl]-6,7-dihydro-5H-benzo[7]annulen-3-ol] was tested, and the IC50 was 2 nM.
`CN(CCCCCCC1=C(c2ccccc2)CCCc2cc(O)ccc21)CCC[S+]([O-])CCC(F)(F)F` (racemic) [Example 59, 9-[6-(Methyl{3-[(RS)-(3,3,3-trifluoropropyl)sulphinyl]propyl}amino)hexyl]-8-phenyl-6,7-dihydro-5H-benzo[7]annulen-3-ol] showed an IC50 of 10 nM.
In the case of `CN(CCCCCCC1=C(c2ccc(F)c(O)c2)CCCc2cc(O)ccc21)CCCCCC[S+]([O-])CCCC(F)(F)C(F)(F)F` (racemic) [Example 34, 8-(4-Fluoro-3-hydroxyphenyl)-9-[6-(methyl{6-[(RS)-(4,4,5,5,5-pentafluoropentyl)sulphinyl]hexyl}amino)hexyl]-6,7-dihydro-5H-benzo[7]annulen-3-ol], the IC50 is reported as 5 nM.
`[O-][S+](CCCN(CCO)CCCCCCC1=C(c2cccc(O)c2)CCCc2cc(O)ccc21)CCC(F)(F)F` (racemic) [Example 95, 9-{6-[(2-Hydroxyethyl){3-[(RS)-(3,3,3-trifluoropropyl)sulphinyl]propyl}amino]hexyl}-8-(3-hydroxyphenyl)-6,7-dihydro-5H-benzo[7]annulen-3-ol] was tested, and the IC50 was 7 nM.
For `CN(CCCCCC1=C(c2cccc(O)c2)CCCc2cc(O)ccc21)CCC[S+]([O-])CCCC(F)(F)C(F)(F)F` (racemic) [Example 4, 8-(3-Hydroxyphenyl)-9-[5-(methyl{3-[(RS)-(4,4,5,5,5-pentafluoropentyl)sulphinyl]propyl}amino)pentyl]-6,7-dihydro-5H-benzo[7]annulen-3-ol], the IC50 was 3 nM.
With `CN(CCCCCCC1=C(c2ccc(F)c(O)c2)CCCc2c1ccc(O)c2F)CCCCS(=O)(=O)CCCC(F)(F)C(F)(F)F` [Example 117, 4-Fluoro-8-(4-fluoro-3-hydroxyphenyl)-9-[6-(methyl{4-[(4,4,5,5,5-pentafluoropentyl)sulphonyl]butyl}amino)hexyl]-6,7-dihydro-5H-benzo[7]annulen-3-ol] the IC50 was 11 nM.
`CN(CCCCCCC1=C(c2cccnc2)CCCc2cc(O)ccc21)CCCSCCCC(F)(F)C(F)(F)F` [Example 42, 9-[6-(Methyl{3-[(4,4,5,5,5-pentafluoropentyl)sulphanyl]propyl}amino)hexyl]-8-(3-pyridyl)-6,7-dihydro-5H-benzo[7]annulen-3-ol] was tested, and the IC50 was 7 nM.
For `CCN(CCCCCCC1=C(c2cccc(O)c2)CCCc2cc(O)ccc21)CCCS(=O)(=O)CCC(F)(F)F` [Example 65, 9-[6-(Ethyl{3-[(3,3,3-trifluoropropyl)sulphonyl]propyl}amino)hexyl]-8-(3-hydroxyphenyl)-6,7-dihydro-5H-benzo[7]annulen-3-ol], the IC50 was 6 nM.
`CN(CCCCCCC1=C(c2ccc(F)c(O)c2)CCCc2cc(O)ccc21)CCCCC[S+]([O-])CCCC(F)(F)C(F)(F)F` (racemic) [Example 32, 8-(4-Fluoro-3-hydroxyphenyl)-9-[6-(methyl{5-[(RS)-(4,4,5,5,5-pentafluoropentyl)sulphinyl]pentyl}amino)hexyl]-6,7-dihydro-5H-benzo[7]annulen-3-ol] showed an IC50 of 3 nM.
`CN(CCCCCC1=C(c2cccnc2)CCCc2cc(O)ccc21)CCC[S+]([O-])CCCC(F)(F)C(F)(F)F` (racemic) [Example 40, 9-[5-(Methyl{3-[(RS)-(4,4,5,5,5-pentafluoropentyl)sulphinyl]propyl}amino)pentyl]-8-(3-pyridyl)-6,7-dihydro-5H-benzo[7]annulen-3-ol] showed an IC50 of 27 nM.
`O=S(=O)(CCCN(CCO)CCCCCCC1=C(c2ccc(F)c(O)c2)CCCc2c1ccc(O)c2F)CCCC(F)(F)C(F)(F)F` [Example 115, 4-Fluoro-8-(4-fluoro-3-hydroxyphenyl)-9-{6-[(2-hydroxyethyl){3-[(4,4,5,5,5-pentafluoropentyl)sulphonyl]propyl}amino]hexyl}-6,7-dihydro-5H-benzo[7]annulen-3-ol] gave an IC50 of 12 nM.
Compound `CC(C)(O)CN(CCCCCCC1=C(c2ccc(F)c(O)c2)CCCc2cc(O)c(F)cc21)CCC[S+]([O-])CCC(F)(F)F` (racemic) [Example 129, 2-Fluoro-8-(4-fluoro-3-hydroxyphenyl)-9-{6-[(2-hydroxy-2-methylpropyl){3-[(RS)-(3,3,3-trifluoropropyl)sulphinyl]propyl}amino]hexyl}-6,7-dihydro-5H-benzo[7]annulen-3-ol] has an IC50 of 4 nM.
`O=S(=O)(CCCN(CCCO)CCCCCCC1=C(c2ccccc2)CCCc2cc(O)ccc21)CCC(F)(F)F` [Example 81, 9-{6-[(3-Hydroxypropyl){3-[(3,3,3-trifluoropropyl)sulphonyl]propyl}amino]hexyl}-8-phenyl-6,7-dihydro-5H-benzo[7]annulen-3-ol] was tested, and the IC50 was 39 nM.
With `CN(CCCCCC1=C(c2cccc(O)c2)CCCc2cc(O)ccc21)CCCCS(=O)(=O)CCC(F)(F)F` [Example 112, 8-(3-Hydroxyphenyl)-9-[5-(methyl{4-[(3,3,3-trifluoropropyl)sulphonyl]butyl}amino)pentyl]-6,7-dihydro-5H-benzo[7]annulen-3-ol] the IC50 was 45 nM.
With `CN(CCCCCCC1=C(c2ccc(F)c(O)c2)CCCc2cc(O)c(F)cc21)CCCCS(=O)(=O)CCCC(F)(F)C(F)(F)F` [Example 121, 2-Fluoro-8-(4-fluoro-3-hydroxyphenyl)-9-[6-(methyl{4-[(4,4,5,5,5-pentafluoropentyl)sulphonyl]butyl}amino)hexyl]-6,7-dihydro-5H-benzo[7]annulen-3-ol] the IC50 was 7 nM.
`CN(CCCCCCC1=C(c2cccc(O)c2)CCCc2cc(O)ccc21)CCCCCS(=O)(=O)CCCC(F)(F)C(F)(F)F` [Example 17, 8-(3-Hydroxyphenyl)-9-[6-(methyl{5-[(4,4,5,5,5-pentafluoropentyl)sulphonyl]pentyl}amino)hexyl]-6,7-dihydro-5H-benzo[7]annulen-3-ol] gave an IC50 of 4 nM.
`CN(CCCCCCC1=C(c2ccc(F)c(O)c2)CCCc2cc(O)c(F)cc21)CCCS(=O)(=O)CCCC(F)(F)C(F)(F)F` [Example 101, 2-Fluoro-8-(4-fluoro-3-hydroxyphenyl)-9-[6-(methyl{3-[(4,4,5,5,5-pentafluoropentyl)sulphonyl]propyl}amino)hexyl]-6,7-dihydro-5H-benzo[7]annulen-3-ol] gave an IC50 of 3 nM.
`CN(CCCCCCC1=C(c2cccc(O)c2)CCCc2cc(O)ccc21)CCCCS(=O)(=O)CCC(F)(F)F` [Example 113, 8-(3-Hydroxyphenyl)-9-[6-(methyl{4-[(3,3,3-trifluoropropyl)sulphonyl]butyl}amino)hexyl]-6,7-dihydro-5H-benzo[7]annulen-3-ol] was tested, and the IC50 was 2 nM.
`CCN(CCCCCCC1=C(c2ccccc2)CCCc2cc(O)ccc21)CCC[S+]([O-])CCC(F)(F)F` (racemic) [Example 76, 9-[6-(Ethyl{3-[(RS)-(3,3,3-trifluoropropyl)sulphinyl]propyl}amino)hexyl]-8-phenyl-6,7-dihydro-5H-benzo[7]annulen-3-ol] showed an IC50 of 23 nM.
